For the series, the system named is moderate to severe papular-pustular acne. It is filed as in vivo, human. Particulars: for skin irritation: human, in vivo. How it is done: This example compares therapeutically applied retinyl palmitate, retinoic acid, calcitriol, and combinations thereof in a cream at different concentrations with the effectiveness of the cream without any of the above compounds present in treating acne. The base cream used to prepare the experimental formulations is the commercially available […] cream. The different compounds at different concentrations were added to the cream and mixed very well. Sixty six volunteers were recruited and were randomly assigned to each of the groups. the subjects were selected on the basis of their having moderate to severe papular-pustular acne. Each group consisted of 3 males and 3 females. No other acne treatment was permitted during the period. Preparations were applied to the face in the morning and evening after washing the face with ordinary soap. Observations were made at time 0, 1, 4, and 8 weeks to assure that treatment was carried out according to direction. Judgments of “worse”, “no change”, “mild”, and “good” were made after 8 weeks of treatment.

As to `CC1=C(/C=C/C(C)=C/C=C/C(C)=C/CO)C(C)(C)CCC1=O` [4-oxo-retinol], the skin irritation entry is reported as “did not”.

Regarding `CC1=C(/C=C/C(C)=C/C=C/C(C)=C/C(=O)O)C(C)(C)CCC1` [retinoic acid, reference compound], the skin irritation result is on record as “caused skin irritation”.

Turning to `C=C1/C(=C\C=C2/CCC[C@]3(C)[C@@H]([C@H](C)CCCC(C)(C)O)CC[C@@H]23)C[C@@H](O)C[C@@H]1O` [calcitriol, reference compound], the skin irritation result is “caused skin irritation”.

On to `CCCCCCCCCCCCCCCC(=O)OC/C=C(C)/C=C/C=C(C)/C=C/C1=C(C)CCCC1(C)C` [retinyl palmitate], for which the skin irritation result is given as “did not”. Also, the “improvement in treating acne versus lower concentrations” value (concentrations at about 1.5% and more) is listed as “remarkable improvement over lower concentrations”.
